Columns and labels:
Assay type in all cases: biochemical
[1] = target: T1, mouse heme-regulated inhibitor (HRI), heme-regulated eIF2α kinase (Mus musculus, UniProt Q9Z2R9); test: in-vitro kinase assay (AlphaScreen) with purified HRI
T1 construct: gene Eif2ak1; expressed in Sf9 cells, purified by Ni-NTA

[2] = target: T2, human heme-regulated inhibitor (HRI), heme-regulated eIF2α kinase (Homo sapiens, UniProt Q9BQI3); test: as above
T2 construct: gene EIF2AK1; expressed in Sf9 cells, purified by Ni-NTA

[3] = target: T3, canine heme-regulated inhibitor (HRI), heme-regulated eIF2α kinase (Canis lupus, UniProt C4PB17); test: AlphaScreen kinase assay with purified HRI, biotinylated Poly-GT substrate, […] ATP
T3 construct: full-length HRI, His6-tagged, expressed in Sf9 cells

Measured: IC50

T3 sequence (C4PB17 1-630): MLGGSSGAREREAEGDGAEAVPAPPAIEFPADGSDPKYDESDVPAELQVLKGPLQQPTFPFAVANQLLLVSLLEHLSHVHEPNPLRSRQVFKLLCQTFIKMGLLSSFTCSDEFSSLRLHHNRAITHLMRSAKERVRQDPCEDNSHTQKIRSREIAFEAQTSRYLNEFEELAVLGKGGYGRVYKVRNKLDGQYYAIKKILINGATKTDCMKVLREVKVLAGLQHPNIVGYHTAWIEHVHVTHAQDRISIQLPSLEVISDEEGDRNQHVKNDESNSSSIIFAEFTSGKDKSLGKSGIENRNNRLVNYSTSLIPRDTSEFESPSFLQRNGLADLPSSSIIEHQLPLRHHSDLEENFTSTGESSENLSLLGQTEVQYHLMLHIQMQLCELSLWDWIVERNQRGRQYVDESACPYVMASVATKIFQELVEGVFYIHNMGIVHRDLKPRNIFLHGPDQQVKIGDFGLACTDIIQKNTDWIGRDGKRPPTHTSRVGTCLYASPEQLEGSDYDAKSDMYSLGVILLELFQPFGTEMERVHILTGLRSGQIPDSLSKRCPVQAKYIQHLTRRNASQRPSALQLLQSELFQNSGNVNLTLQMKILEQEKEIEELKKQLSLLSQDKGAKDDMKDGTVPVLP
T2 sequence (Q9BQI3 whole entry): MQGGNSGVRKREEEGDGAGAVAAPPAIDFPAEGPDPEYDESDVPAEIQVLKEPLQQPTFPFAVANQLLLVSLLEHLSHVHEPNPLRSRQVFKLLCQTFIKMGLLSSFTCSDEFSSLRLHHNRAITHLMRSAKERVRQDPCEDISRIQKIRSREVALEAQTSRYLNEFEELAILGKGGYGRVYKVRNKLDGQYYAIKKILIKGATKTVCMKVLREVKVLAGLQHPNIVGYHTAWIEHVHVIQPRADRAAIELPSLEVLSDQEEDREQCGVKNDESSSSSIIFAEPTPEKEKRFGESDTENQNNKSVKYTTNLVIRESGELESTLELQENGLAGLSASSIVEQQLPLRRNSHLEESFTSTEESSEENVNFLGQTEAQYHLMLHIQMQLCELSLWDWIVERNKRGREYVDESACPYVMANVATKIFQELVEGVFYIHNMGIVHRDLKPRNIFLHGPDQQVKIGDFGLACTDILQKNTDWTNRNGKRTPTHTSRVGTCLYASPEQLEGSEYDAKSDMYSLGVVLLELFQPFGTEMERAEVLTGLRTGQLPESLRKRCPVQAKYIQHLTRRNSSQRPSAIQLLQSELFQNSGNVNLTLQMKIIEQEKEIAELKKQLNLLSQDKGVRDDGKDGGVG
T1 sequence (Q9Z2R9 whole entry): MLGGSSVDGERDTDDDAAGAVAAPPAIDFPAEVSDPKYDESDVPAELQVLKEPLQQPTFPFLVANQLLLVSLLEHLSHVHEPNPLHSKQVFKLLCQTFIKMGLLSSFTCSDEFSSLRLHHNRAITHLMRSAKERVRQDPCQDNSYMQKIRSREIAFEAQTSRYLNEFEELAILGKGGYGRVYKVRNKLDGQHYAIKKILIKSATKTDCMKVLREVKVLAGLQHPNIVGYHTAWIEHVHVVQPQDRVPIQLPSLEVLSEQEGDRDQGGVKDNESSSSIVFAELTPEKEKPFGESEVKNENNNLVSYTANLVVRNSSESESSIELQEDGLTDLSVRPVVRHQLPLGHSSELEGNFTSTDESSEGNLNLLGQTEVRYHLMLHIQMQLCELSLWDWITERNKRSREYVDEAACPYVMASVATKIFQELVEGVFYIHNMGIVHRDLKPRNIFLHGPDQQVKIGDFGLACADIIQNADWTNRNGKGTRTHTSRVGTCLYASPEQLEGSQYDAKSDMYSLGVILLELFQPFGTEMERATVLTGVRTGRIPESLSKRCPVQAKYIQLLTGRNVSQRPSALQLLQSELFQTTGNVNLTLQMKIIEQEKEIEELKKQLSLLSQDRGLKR

O=c1c(O)c(-c2ccc(O)c(O)c2)oc2cc(O)cc(O)c12 [quercetin, 3,3′,4′,5,7-pentahydroxyflavone]
~1000 nM: all assays above

Reference: article PMC2778829, “Functional Characterization of the Canine Heme-Regulated eIF2α Kinase: Regulation of Protein Synthesis” (Advances in Hematology, 2009)
